Source: paper PMC10046369, “Low-Affinity/High-Selectivity Dopamine Transport Inhibition Sufficient to Rescue Cognitive Functions in the Aging Rat” (Biomolecules, 2023)

Experiments:
Assay in all cases: cell-based
Set-up in all cases: Eurofins Cerep functional GPCR screen, antagonist mode, inhibition of control agonist response
Conditions in all cases: read-out: % Inhibition of Control Agonist Response, Mean
CysLT1 (LTD4) = target: T1, CysLT1 (LTD4) (Homo sapiens, UniProt Q9Y271)
T1 construct: gene CYSLTR1

ETB = target: T2, ETB (Homo sapiens, UniProt P24530)
T2 construct: gene EDNRB

H3 = target: T3, H3 (Homo sapiens, UniProt Q9Y5N1)
T3 construct: gene HRH3

GPR109A = target: T4, GPR109A (Homo sapiens, UniProt Q8TDS4)
T4 construct: gene HCAR2

Ghrelin / GHSR-1a = target: T5, Ghrelin / GHSR-1a (Homo sapiens, UniProt Q92847)
T5 construct: GHSR-1a isoform

CXCR5 = CXCR5 (Homo sapiens, UniProt P32302)
β1 = target: T6, β1 (Homo sapiens, UniProt P08588)
T6 construct: gene ADRB1

A2B = target: T7, A2B (Homo sapiens, UniProt P29275)
T7 construct: gene ADORA2B

CX3CR1 = CX3CR1 (Homo sapiens, UniProt P49238)
CXCR1 = CXCR1 (Homo sapiens, UniProt P25024)
β2 = target: T8, β2 (Homo sapiens, UniProt P07550)
T8 construct: gene ADRB2

CT (Calcitonin) = target: T9, CT (Calcitonin) (Homo sapiens, UniProt P30988)
T9 construct: gene CALCR

GIP = target: T10, GIP (Homo sapiens, UniProt P48546)
T10 construct: gene GIPR

α2A = target: T11, α2A (Homo sapiens, UniProt P08913)
T11 construct: gene ADRA2A

CXCR2 = CXCR2 (Homo sapiens, UniProt P25025)
GPR39 = GPR39 (Homo sapiens, UniProt O43194)
TSH = target: T12, TSH (Homo sapiens, UniProt P16473)
T12 construct: gene TSHR

GABAB1b beta = target: T13, GABAB1b beta (Homo sapiens, UniProt Q9UBS5)
T13 construct: gene GABBR1; GABAB1b isoform

H4 = target: T14, H4 (Homo sapiens, UniProt Q9H3N8)
T14 construct: gene HRH4

CCR6 = CCR6 (Homo sapiens, UniProt P51684)
B1 = target: T15, B1 (Homo sapiens, UniProt P46663)
T15 construct: gene BDKRB1

GAL2 = target: T16, GAL2 (Homo sapiens, UniProt O43603)
T16 construct: gene GALR2

D5 = target: T17, D5 (Homo sapiens, UniProt P21918)
T17 construct: gene DRD5

secretin = target: T18, secretin (Homo sapiens, UniProt P47872)
T18 construct: gene SCTR

AT1 = target: T19, AT1 (Homo sapiens, UniProt P30556)
T19 construct: gene AGTR1

D4.4 = target: T20, D4.4 (Homo sapiens, UniProt P21917)
T20 construct: gene DRD4; D4.4

CCR6, sequence (P51684 whole entry): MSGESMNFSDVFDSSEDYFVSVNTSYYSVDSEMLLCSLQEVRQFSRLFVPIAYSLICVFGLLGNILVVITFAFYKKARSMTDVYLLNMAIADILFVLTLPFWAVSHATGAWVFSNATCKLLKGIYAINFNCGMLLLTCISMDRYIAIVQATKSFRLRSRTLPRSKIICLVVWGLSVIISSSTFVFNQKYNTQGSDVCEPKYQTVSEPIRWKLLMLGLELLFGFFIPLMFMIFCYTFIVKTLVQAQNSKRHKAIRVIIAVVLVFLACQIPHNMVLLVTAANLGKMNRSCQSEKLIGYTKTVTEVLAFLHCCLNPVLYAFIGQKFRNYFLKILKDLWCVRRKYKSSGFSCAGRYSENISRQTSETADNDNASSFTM
CX3CR1, sequence (P49238 whole entry): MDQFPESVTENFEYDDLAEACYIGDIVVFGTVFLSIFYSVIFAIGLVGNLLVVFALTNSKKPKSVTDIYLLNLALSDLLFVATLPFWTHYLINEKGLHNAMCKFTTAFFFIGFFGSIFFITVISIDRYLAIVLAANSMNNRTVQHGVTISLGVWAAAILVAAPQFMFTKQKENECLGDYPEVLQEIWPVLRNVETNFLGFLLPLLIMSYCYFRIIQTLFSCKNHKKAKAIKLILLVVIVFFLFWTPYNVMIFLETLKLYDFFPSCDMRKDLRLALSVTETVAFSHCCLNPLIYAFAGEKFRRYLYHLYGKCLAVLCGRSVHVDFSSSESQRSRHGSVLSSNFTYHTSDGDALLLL
T5 sequence (Q92847 whole entry, canonical isoform): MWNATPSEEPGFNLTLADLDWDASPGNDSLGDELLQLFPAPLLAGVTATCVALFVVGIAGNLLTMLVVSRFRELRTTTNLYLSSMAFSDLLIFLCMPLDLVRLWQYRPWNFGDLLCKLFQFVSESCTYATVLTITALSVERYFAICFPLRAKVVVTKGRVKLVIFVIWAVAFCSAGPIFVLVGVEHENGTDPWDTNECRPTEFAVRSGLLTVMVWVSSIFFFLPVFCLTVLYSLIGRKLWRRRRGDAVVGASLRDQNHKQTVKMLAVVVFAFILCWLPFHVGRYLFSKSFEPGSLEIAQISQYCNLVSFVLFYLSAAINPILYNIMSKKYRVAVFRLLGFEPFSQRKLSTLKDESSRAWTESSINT
CXCR2, sequence (P25025 whole entry): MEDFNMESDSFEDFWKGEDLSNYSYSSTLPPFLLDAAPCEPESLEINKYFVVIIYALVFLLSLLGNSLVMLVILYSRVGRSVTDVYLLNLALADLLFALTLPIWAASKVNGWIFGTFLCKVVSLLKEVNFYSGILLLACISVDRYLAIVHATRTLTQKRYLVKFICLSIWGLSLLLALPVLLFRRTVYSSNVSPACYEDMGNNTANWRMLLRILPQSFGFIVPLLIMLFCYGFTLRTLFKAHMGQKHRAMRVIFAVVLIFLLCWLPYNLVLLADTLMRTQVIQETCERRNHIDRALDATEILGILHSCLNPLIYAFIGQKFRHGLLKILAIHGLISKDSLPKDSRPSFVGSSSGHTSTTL
T2 sequence (P24530 whole entry): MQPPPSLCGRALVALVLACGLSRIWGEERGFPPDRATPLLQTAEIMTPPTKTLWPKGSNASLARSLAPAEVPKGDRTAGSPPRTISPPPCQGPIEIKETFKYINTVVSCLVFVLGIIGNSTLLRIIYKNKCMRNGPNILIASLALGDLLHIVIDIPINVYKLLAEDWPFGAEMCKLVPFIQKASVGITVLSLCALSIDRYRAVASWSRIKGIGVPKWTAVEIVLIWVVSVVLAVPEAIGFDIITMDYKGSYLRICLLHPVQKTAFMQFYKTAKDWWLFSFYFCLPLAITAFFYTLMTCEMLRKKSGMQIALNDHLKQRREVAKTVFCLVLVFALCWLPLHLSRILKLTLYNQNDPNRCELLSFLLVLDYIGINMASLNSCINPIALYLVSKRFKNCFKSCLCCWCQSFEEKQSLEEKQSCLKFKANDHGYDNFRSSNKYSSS
T11 sequence (P08913 whole entry): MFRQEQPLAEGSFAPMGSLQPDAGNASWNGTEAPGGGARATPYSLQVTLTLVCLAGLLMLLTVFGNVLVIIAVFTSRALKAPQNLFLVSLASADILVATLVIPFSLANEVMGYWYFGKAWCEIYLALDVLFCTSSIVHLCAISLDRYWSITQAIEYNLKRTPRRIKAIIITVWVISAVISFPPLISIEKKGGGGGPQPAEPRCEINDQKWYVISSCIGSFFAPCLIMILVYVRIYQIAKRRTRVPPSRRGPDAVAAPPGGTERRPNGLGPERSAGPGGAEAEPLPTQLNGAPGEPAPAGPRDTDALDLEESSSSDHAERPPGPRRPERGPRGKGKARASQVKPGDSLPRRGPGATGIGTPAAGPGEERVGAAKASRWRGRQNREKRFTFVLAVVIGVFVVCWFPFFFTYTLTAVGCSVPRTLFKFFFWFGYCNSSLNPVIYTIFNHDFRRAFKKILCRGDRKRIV
T9 sequence (P30988 whole entry): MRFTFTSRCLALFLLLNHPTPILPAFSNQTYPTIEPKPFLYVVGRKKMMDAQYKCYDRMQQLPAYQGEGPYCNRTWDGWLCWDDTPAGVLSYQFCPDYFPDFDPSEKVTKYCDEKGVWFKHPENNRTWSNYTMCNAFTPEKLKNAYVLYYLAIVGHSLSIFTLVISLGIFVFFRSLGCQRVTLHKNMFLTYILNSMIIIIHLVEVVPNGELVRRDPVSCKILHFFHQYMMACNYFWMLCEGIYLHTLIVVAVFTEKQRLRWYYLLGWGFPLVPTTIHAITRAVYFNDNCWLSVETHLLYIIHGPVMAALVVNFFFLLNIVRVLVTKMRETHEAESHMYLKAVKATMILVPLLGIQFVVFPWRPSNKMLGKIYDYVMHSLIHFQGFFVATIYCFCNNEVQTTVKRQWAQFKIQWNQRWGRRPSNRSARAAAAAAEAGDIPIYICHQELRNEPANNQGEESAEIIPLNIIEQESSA
T18 sequence (P47872 whole entry): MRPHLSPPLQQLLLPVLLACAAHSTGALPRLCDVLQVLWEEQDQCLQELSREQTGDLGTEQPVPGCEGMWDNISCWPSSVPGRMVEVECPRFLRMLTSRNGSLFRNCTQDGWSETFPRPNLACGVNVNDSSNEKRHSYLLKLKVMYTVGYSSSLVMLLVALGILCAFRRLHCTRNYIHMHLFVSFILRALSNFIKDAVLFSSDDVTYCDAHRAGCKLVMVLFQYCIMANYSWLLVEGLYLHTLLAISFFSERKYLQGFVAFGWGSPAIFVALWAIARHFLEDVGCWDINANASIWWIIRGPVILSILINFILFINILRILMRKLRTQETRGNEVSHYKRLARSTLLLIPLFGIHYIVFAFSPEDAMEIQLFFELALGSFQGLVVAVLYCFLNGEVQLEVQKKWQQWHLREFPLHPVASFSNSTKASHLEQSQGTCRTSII
CXCR1, sequence (P25024 whole entry): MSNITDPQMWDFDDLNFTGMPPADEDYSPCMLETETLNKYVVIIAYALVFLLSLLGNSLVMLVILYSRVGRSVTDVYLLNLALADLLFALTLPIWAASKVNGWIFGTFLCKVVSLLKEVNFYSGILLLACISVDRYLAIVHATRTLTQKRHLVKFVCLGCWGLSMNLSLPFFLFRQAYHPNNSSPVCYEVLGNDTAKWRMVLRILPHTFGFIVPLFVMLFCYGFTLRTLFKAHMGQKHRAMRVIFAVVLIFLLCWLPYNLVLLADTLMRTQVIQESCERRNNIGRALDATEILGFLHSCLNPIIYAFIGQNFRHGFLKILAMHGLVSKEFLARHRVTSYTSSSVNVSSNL
T14 sequence (Q9H3N8 whole entry): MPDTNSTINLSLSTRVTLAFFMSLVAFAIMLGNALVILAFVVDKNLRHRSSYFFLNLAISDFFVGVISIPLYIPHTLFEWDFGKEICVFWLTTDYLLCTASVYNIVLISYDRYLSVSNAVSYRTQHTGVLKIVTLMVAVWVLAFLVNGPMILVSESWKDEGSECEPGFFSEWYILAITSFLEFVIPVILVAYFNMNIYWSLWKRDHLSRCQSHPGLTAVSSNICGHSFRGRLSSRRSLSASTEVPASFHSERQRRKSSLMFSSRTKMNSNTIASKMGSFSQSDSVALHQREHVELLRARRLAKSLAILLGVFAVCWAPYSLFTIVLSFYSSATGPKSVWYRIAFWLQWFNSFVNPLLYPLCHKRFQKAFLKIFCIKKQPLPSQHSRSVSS
CXCR5, sequence (P32302 whole entry): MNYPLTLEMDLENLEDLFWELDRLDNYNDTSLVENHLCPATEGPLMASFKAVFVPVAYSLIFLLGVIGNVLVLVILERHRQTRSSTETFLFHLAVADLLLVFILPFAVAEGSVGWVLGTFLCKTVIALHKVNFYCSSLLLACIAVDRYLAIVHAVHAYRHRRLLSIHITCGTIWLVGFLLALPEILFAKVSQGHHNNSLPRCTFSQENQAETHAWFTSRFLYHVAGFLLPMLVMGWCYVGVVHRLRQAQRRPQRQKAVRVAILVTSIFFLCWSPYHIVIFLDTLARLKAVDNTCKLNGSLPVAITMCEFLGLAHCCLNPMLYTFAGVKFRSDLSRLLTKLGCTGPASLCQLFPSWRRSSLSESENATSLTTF
T7 sequence (P29275 whole entry): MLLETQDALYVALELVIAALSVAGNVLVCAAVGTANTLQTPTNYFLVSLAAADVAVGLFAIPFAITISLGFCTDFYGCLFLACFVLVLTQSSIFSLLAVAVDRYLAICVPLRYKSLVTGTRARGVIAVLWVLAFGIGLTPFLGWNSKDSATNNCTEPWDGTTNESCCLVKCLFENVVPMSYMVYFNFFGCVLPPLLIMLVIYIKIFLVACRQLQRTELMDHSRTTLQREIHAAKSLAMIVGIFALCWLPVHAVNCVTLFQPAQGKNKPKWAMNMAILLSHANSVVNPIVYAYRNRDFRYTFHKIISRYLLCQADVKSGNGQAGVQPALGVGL

[O-][S@@+](Cc1cncs1)C(c1ccccc1)c1ccccc1 [S-CE-123, (S)-5-((Benzhydrylsulfinyl)Methyl)Thiazole]
inhibition at 2.8 µM (CysLT1 (LTD4)): -12.9%
inhibition at 2.8 µM (ETB): 1.5%
inhibition at 2.8 µM (H3): -0.3%
inhibition at 2.8 µM (GPR109A): -11.6%
inhibition at 2.8 µM (Ghrelin / GHSR-1a): -11.7%
inhibition at 2.8 µM (CXCR5): -1.9%
inhibition at 2.8 µM (β1): 18.4%
inhibition at 2.8 µM (A2B): -11.8%
inhibition at 2.8 µM (CX3CR1): -15.8%
inhibition at 2.8 µM (CXCR1): -13%
inhibition at 2.8 µM (β2): -1.2%
inhibition at 2.8 µM (CT (Calcitonin)): -21.7%
inhibition at 2.8 µM (GIP): -6.6%
inhibition at 2.8 µM (α2A): -8.4%
inhibition at 2.8 µM (CXCR2): 3.8%
inhibition at 2.8 µM (GPR39): 1.6%
inhibition at 2.8 µM (TSH): -6.1%
inhibition at 2.8 µM (GABAB1b beta): -10.6%
inhibition at 2.8 µM (H4): 3.4%
inhibition at 2.8 µM (CCR6): -26.7%
inhibition at 2.8 µM (B1): -10.4%
inhibition at 2.8 µM (GAL2): -4.8%
inhibition at 2.8 µM (D5): -10.8%
inhibition at 2.8 µM (secretin): 17.6%
inhibition at 2.8 µM (AT1): 3%
inhibition at 2.8 µM (D4.4): -7.9%
